Experimental data from PubChem BioAssay (NCI).
“And” between values parts separate entries of the source, which are not always exact repeats. Equal values may be shown once.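 Values below derive from 48-hour exposures of cells grown in 96-well plates, with endpoints linearly interpolated between the two concentrations bracketing the appropriate inhibition level. GI50 = concentration required for 50% inhibition of growth. The concentration for full growth arrest is given as TGI.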

Tests used:
Test in all cases: inhibition of tumour cell growth, NCI panel, 48 h
[1] = test system: SW-620 colon
[2] = test system: OVCAR-3 ovarian
[3] = test system: CAKI-1 renal
[4] = test system: A498 renal
[5] = test system: M14 melanoma
[6] = test system: RPMI-8226 leukemia
[7] = test system: COLO 205 colon
[8] = test system: SNB-75 CNS
[9] = test system: RXF 393 renal
[10] = test system: SK-MEL-28 melanoma

SMILES	TGI [1]	TGI [2]	TGI [3]	TGI [4]	TGI [5]	TGI [6]	TGI [7]	TGI [8]	TGI [9]	TGI [10]	GI50 [2]	GI50 [3]	GI50 [10]	GI50 [1]	GI50 [4]	GI50 [5]	GI50 [6]	GI50 [7]	GI50 [8]	GI50 [9]
O=C(Nc1nc(=S)[nH][nH]1)C(=O)C(C(=O)c1ccc2ccccc2c1)C1OC(=O)c2ccccc21 (stereo unspecified)	> 100 µM	67 µM	> 100 µM	> 100 µM	40.9 µM	40.2 µM	34.5 µM	63.1 µM	26.8 µM	49.1 µM	–	–	–	–	–	–	–	–	–	–
CN1C(=O)C(=O)N2c3ccc(Cl)cc3C3(c4ccccc4)N=CC12O3 (stereo unspecified)	14.5 µM	14.8 µM	42.7 µM	22.9 µM	15 µM	6.87 µM	15 µM	24.3 µM	6.34 µM	12.1 µM	–	–	–	–	–	–	–	–	–	–
CCC(C)SC1SCC2C(=O)N(C)C3(CC3C)C(=O)OCC(NC(=O)c3nc4ccccc4cc3O)C(=O)NC(C)C(=O)N(C)C1C(=O)N(C)C1(CC1C)C(=O)OCC(NC(=O)c1nc3ccccc3cc1O)C(=O)NC(C)C(=O)N2C (stereo unspecified)	0.00439 µM and < 0.034 µM	0.00768 µM	–	0.000492 µM	0.000846 µM and < 0.025 µM	0.00233 µM	0.000194 µM	8.3e-05 µM	0.000154 µM	0.000138 µM	0.000162 µM	8.7e-05 µM	3.02e-05 µM	–	–	–	–	–	–	–
Cc1nc(-c2nc(C)c(C(=O)NNC(=O)C[n+]3ccccc3)s2)sc1C(=O)NNC(=O)C[n+]1ccccc1	> 100 µM	> 100 µM	85.1 µM	> 100 µM	> 100 µM	> 100 µM	> 100 µM	84.3 µM	> 100 µM	> 100 µM	–	–	–	–	–	–	–	–	–	–
CC(=O)Nc1cc2ccc(=O)oc2cc1Cl	> 100 µM	> 100 µM	> 100 µM	> 100 µM	> 100 µM	> 100 µM	> 100 µM	> 100 µM	> 100 µM	> 100 µM	–	–	–	–	–	–	–	–	–	–
CN(C)CC(O)c1ccc(/C=C/c2ccc(Cl)cc2)cc1 (stereo unspecified)	2.95 µM	2.91 µM	2.05 µM	2.66 µM	3.11 µM	22.4 µM	3.17 µM	4.18 µM	16.2 µM	3.45 µM	1.57 µM	0.706 µM	1.84 µM	1.6 µM	1.37 µM	1.67 µM	5.34 µM	1.71 µM	1.71 µM	3.89 µM
CC1(C)CC(c2c[nH]c3ccccc23)=CC2=Nc3ccccc3C21O (stereo unspecified)	> 100 µM	> 100 µM	> 100 µM	> 100 µM	> 100 µM	> 100 µM	> 100 µM	25.4 µM	> 100 µM	77.7 µM	–	–	–	–	–	–	–	–	–	–
Cc1cc(Nc2ccc(C)c(Cl)c2)n2nc(C(F)(F)F)nc2n1	> 100 µM	75.9 µM	34.7 µM	53.5 µM	76.5 µM	39 µM	70.1 µM	> 100 µM	82.4 µM	> 100 µM	22 µM	14.6 µM	29.8 µM	30.2 µM	8.61 µM	28.5 µM	14 µM	23.5 µM	27.7 µM	19.4 µM
O=C1CSC(=S)N1/N=C/c1ccc(Cl)c([N+](=O)[O-])c1	> 100 µM	42.5 µM	> 100 µM	> 100 µM	40.6 µM	> 100 µM	> 100 µM	> 100 µM	> 100 µM	62.1 µM	–	–	–	–	–	–	–	–	–	–
COC1=CC(=O)C(C2(OC(C)C)OC(=O)C(Cl)=C2Cl)=CC1=O (stereo unspecified)	> 100 µM	> 100 µM	> 100 µM	> 100 µM	> 100 µM	> 100 µM	> 100 µM	> 100 µM	> 100 µM	> 100 µM	–	–	–	–	–	–	–	–	–	–
Nc1nc2[nH]cc(CCc3ccc(C(=O)N[C@@H](CCC(=O)O)C(=O)O)cc3)c2c(=O)[nH]1	> 100 µM	> 100 µM	> 100 µM	> 100 µM	> 100 µM	> 100 µM	> 100 µM	> 100 µM	> 100 µM	> 100 µM	–	0.0845 µM	–	–	0.124 µM	0.158 µM	> 65.9 µM	> 34.6 µM	–	–
C=CC(=O)Nc1cc(Nc2nccc(-c3cn(C)c4ccccc34)n2)c(OC)cc1N(C)CCN(C)C	3.76 µM and 4.43 µM	2.93 µM and 3.04 µM	6.75 µM and 2.49 µM	3.25 µM and 4.12 µM	3.6 µM and 3.32 µM	6.65 µM and 4.08 µM	3.14 µM and 2.99 µM	16.4 µM and > 10 µM	3.1 µM and 2.98 µM	3.07 µM and 3.12 µM	1.4 µM and 1.38 µM	0.343 µM and 0.916 µM	1.63 µM and 1.62 µM	1.83 µM	1.11 µM and 1.48 µM	1.91 µM and 1.73 µM	1.95 µM and 1.45 µM	1.62 µM and 1.43 µM	3.52 µM and 2.57 µM	1.45 µM and 1.34 µM
Cc1ccc(-c2nc(N3CCNCC3)c3oc(-c4ccc(C)cc4)nc3n2)cc1	4.02 µM	3.87 µM	> 45.6 µM	32 µM	3.69 µM	5.28 µM	4.11 µM	> 32.1 µM	8.81 µM	11.5 µM	1.95 µM	24.1 µM	6.14 µM	1.8 µM	15.8 µM	1.83 µM	2.48 µM	1.98 µM	8.66 µM	3.89 µM
O=C(O)C(Cl)Cl	> 10000 µM	> 10000 µM	> 10000 µM	> 10000 µM	> 10000 µM	> 10000 µM	> 10000 µM	> 10000 µM	> 10000 µM	> 10000 µM	4710 µM and > 10000 µM	5490 µM and > 10000 µM	3150 µM and > 10000 µM	> 10000 µM	2670 µM and > 10000 µM	> 10000 µM	3210 µM and > 9400 µM	> 10000 µM	3500 µM and > 10000 µM	5140 µM and > 10000 µM
COc1ccccc1NC(=O)c1cc2cc(Br)ccc2cc1O	11.1 µM	9.06 µM	4.69 µM	11 µM	11.9 µM	4.66 µM	15.8 µM	8.89 µM	7.11 µM	14.4 µM	2.48 µM	1.42 µM	4.46 µM	3.12 µM	2.96 µM	3.01 µM	1.45 µM	4 µM	2.12 µM	2.36 µM
O=C1c2c(F)c(F)c(F)c(F)c2C(=O)N1c1ccc(F)cc1F	7.22 µM	27.5 µM	25.5 µM	55.1 µM	33.6 µM	65.4 µM	35.7 µM	34.6 µM	> 46.7 µM	> 72.4 µM	9.17 µM	8.44 µM	13.4 µM	2.11 µM	25.8 µM	13.4 µM	3.81 µM	10.9 µM	12.7 µM	7.68 µM
OC(c1cc(C(F)(F)F)nc2c(C(F)(F)F)cccc12)C1CCCCN1 (stereo unspecified)	3.46 µM	4.37 µM	4.67 µM	7.83 µM	3.41 µM	11.5 µM	3.3 µM	11.7 µM	4.53 µM	3.29 µM	2.19 µM	1.78 µM	1.84 µM	1.85 µM	1.81 µM	1.83 µM	3.22 µM	1.83 µM	2.34 µM	1.71 µM
CC(=C(c1ccc(OCCN2CCCCC2)cc1)c1ccc(OCCN2CCCCC2)cc1)c1ccc(Cl)cc1	0.794 µM	0.783 µM	0.74 µM	0.755 µM	0.837 µM	1.19 µM	0.921 µM	0.673 µM	0.743 µM	0.773 µM	0.415 µM	0.397 µM	0.422 µM	0.408 µM	0.386 µM	0.438 µM	0.53 µM	0.46 µM	0.325 µM	0.375 µM
C#Cc1cccc(Nc2nc3cc([N+](=O)[O-])ccc3nc2Nc2ccc(O)cc2)c1	3.87 µM	4.14 µM	5.04 µM	13.7 µM	2.99 µM	8 µM	3.71 µM	3.42 µM	3.58 µM	3.34 µM	1.87 µM	2.19 µM	1.78 µM	1.79 µM	3.08 µM	1.43 µM	2.24 µM	1.9 µM	1.36 µM	1.73 µM
CC(=O)N[C@@H](Cc1ccc(OP(=O)(O)O)cc1)C(=O)N[C@H]1CCC(=O)N2CCC[C@@H](C(=O)Nc3cccc4ccccc34)N2C1=O	> 25 µM	> 25 µM	> 25 µM	> 25 µM	> 25 µM	> 25 µM	> 25 µM	> 25 µM	> 25 µM	> 25 µM	> 25 µM	> 25 µM	> 25 µM	> 25 µM	> 25 µM	> 25 µM	> 25 µM	> 25 µM	> 19.8 µM	> 25 µM
O=C(Nc1nn2c(-c3cc(C(F)(F)F)cc(C(F)(F)F)c3)nnc2s1)C1CCCC1	> 100 µM	> 37.8 µM	> 65.2 µM	2.92 µM	> 100 µM	> 25.6 µM	2.86 µM	> 28.2 µM	> 33.9 µM	> 100 µM	0.441 µM	0.311 µM	0.734 µM	1.74 µM	0.255 µM	0.957 µM	0.368 µM	1.49 µM	1.43 µM	1.62 µM
CC(=O)OC1(C)N=NC2(CCCCC2)O1 (stereo unspecified)	> 100 µM	> 100 µM	> 100 µM	> 100 µM	> 100 µM	> 100 µM	> 100 µM	> 100 µM	> 100 µM	> 100 µM	–	–	–	–	–	–	–	–	–	–
C=C(C)C(=O)O[C@@H]1C[C@@]2(C)O[C@@H]2C[C@H](O)/C(C)=C/[C@H]2OC(=O)C(=C)[C@@H]21	38.9 µM	> 100 µM	67.4 µM	> 100 µM	> 100 µM	> 100 µM	> 100 µM	> 100 µM	> 100 µM	56.5 µM	–	–	–	–	–	–	–	–	–	–
COc1c2ccccc2c(OC)c2[nH]c(=O)ccc12	> 63.4 µM	6.89 µM	> 90.6 µM	4.75 µM	2.37 µM	> 100 µM	14.9 µM	> 21.9 µM	> 100 µM	5.1 µM	2.31 µM	16.2 µM	2.37 µM	4.2 µM	2.04 µM	0.843 µM	12.6 µM	4.3 µM	3.2 µM	16.3 µM
COc1c(CC(C)=O)ccc2c1C(=O)c1ccc(C=O)c(OC(C)=O)c1C2=O	33.7 µM	35.3 µM	47 µM	80.3 µM	25.6 µM	63.3 µM	31.6 µM	77.8 µM	25.4 µM	23 µM	–	–	–	–	–	–	–	–	–	–
O=C1NC(=NCc2ccccc2)S/C1=C\c1ccc2ncccc2c1	> 25 µM	> 25 µM	> 25 µM	> 25 µM	> 25 µM	> 25 µM	> 25 µM	> 25 µM	> 25 µM	> 25 µM	> 25 µM	> 25 µM	> 25 µM	> 25 µM	> 25 µM	> 25 µM	> 25 µM	> 25 µM	> 25 µM	> 25 µM
[O-][Cl+3]([O-])([O-])[O-].[O]=[Ru]=[O].c1ccc(-c2ccccn2)nc1.c1ccc(-c2ccccn2)nc1	> 100 µM	> 100 µM	> 100 µM	> 100 µM	> 100 µM	> 100 µM	> 100 µM	> 100 µM	> 100 µM	> 100 µM	> 100 µM	> 100 µM	92.1 µM	> 100 µM	> 100 µM	> 100 µM	29.7 µM	> 100 µM	40.9 µM	39.1 µM
COC(=O)/C=C/c1cc(OC(C)=O)c2c(c1)[C@@H](C(=O)OC)[C@H](c1ccc(OC(C)=O)c(OC(C)=O)c1)O2	> 100 µM	0.0681 µM	44.7 µM	7.97 µM	39 µM	–	24.7 µM	1.48 µM	3.03 µM	80.8 µM	0.0267 µM	0.314 µM	0.852 µM	0.0418 µM	1.01 µM	0.0338 µM	0.049 µM	3.57 µM	0.0191 µM	0.075 µM
